The text below walks through data of patent publication EP4796530A1 (Biocells (Beijing) Biotech Co., Ltd., priority 2023, dated 2025).

Where only a bound is given, the exact number is not on record here.

Data set [1] has as its target T1, NLRP3 (Mus musculus, UniProt Q8R4B8). Kind of data set: Inhibition of canonical NLRP3 activation (LPS+ATP/Nig) in J774A.1 cells, IL-1β release by ELISA, single concentration. Particulars: J774.A1, 1 µM compound, LPS + 5 mM ATP or 10 µM Nig, compared with the positive control, read-out: inhibition of IL-1β release. Set-up: The mouse macrophage cell line J774A.1 was used, and LPS was used as the first signal; host or cells: J774A.1 mouse monocyte-macrophage cell line. In kind it is cell-based. The protocol: J774A.1 cells were plated in a 48-well plate at a density of 1.0×10^6 cells/mL, with 300 µL per well. Subsequently, NLRP3 was activated using LPS+5 mM ATP (adenosine triphosphate) or 10 µM Nig (nigericin). […] ATP was purchased from Sigma, Cat. No.: L2654. Nig was purchased from Shanghai Yuanye Bio-Technology Co., Ltd., Cat. No.: S45490.
Experimental groups: a negative control group, an LPS-alone incubation control group, an LPS+ATP or +Nig positive control group, and an example compound experimental group.
After the plated J774A.1 cells adhering to the plate, the culture medium was replaced. For all the groups except the negative control group, the culture medium was completely replaced with cell culture medium containing 1 µg/mL LPS. The negative control group received cell culture medium. Then, all the groups were incubated overnight. 18 h later, the culture medium was replaced again. The culture medium of the example compound experimental group was completely replaced with cell culture medium containing the compounds; while the negative control group, the LPS-alone incubation control group, and the LPS+ATP/Nig positive control group received cell culture medium. 1 h later, the culture mediums of the LPS+ATP/Nig positive control group and the example compound experimental group were completely replaced with cell culture medium containing 5 mM ATP or 10 µM Nig. 1 h later, the cell supernatants were collected for IL-1β detection.
Therefore, the relative change in the amount of IL-1β release may directly reflect NLRP3 inhibitory effect.

Data set [2] concerns the target T1, NLRP3. Description: Inhibition of APOE peptide-induced NLRP3 activation in J774A.1 cells, IL-1β release. In kind it is cell-based. More on the design: The mouse macrophage cell line J774A.1 was used, and LPS was used as the first signal; host or cells: J774A.1 mouse monocyte-macrophage cell line. As to conditions: J774.A1, 10 µM compound, 30 µg/mL APOE peptide. The method, then: J774A.1 cells were plated in a 48-well plate at a density of 1.0×10^6 cells/mL, with 300 µL per well. Subsequently, NLRP3 was activated by APOE peptide. The cell culture medium comprises: DMEM (brand: Gibco, Cat. No.: C12430500) + 10% fetal bovine serum (brand: Gibco, Cat. No.: 10099-141) + 1% sodium pyruvate (brand: Gibco, Cat. No.: 11360-070) + 1% penicillin-streptomycin solution (brand: Solarbio, Cat. No.: P1400). The J774A.1 mouse monocyte-macrophage cell line was purchased from the Cell Resource Center of the Institute of Basic Medical Sciences of Chinese Academy of Medical Sciences (Resource No. 1101MOU-PUMC000222). APOE2/3 peptide 1-151 was obtained through recombinant protein expression and purification by Biocells (Beijing) Biotech Co., Ltd. The procedures were as follows: the sequence (SEQ ID NO: 1) shown below was inserted into the pET-28A plasmid and transformed into BL-21(DE3) expression strain; the expression of target protein was induced with IPTG at a low temperature; after collecting the bacteria via centrifugation, ultrasonic disruption was performed; and after centrifugation, the supernatant was purified by nickel ion affinity chromatography (AKTA pure), and then the product was concentrated by ultrafiltration and identified by BCA+protein electrophoresis. Sequence: [formula]
Experimental groups: a negative control group, an APOE treatment control group, and an example compound experimental group.
After the plated J774A.1 cells adhering to the plate, the culture medium was replaced. The culture medium of the APOE treatment control group was replaced with cell culture medium containing 30 µg/mL APOE peptide, the culture medium of the example compound experimental group was replaced with culture medium containing 30 µg/mL APOE peptide combined with the compounds, and the negative control group received cell culture medium. Then, all the groups were incubated overnight. 18 h later, the cell supernatants were collected for IL-1β detection.
Activation of NLRP3 by APOE peptide will result in release of mature IL-1β, and the release can be inhibited by NLRP3 inhibitors. Therefore, the relative change in the amount of IL-1β release may directly reflect NLRP3 inhibitory effect.
In this experimental example, effective inhibition refers to a reduction of 70% or more in the release amount, compared with the release amount of the positive control minus the negative control.

Data set [3] in a line: Mouse pharmacokinetics after intravenous administration (plasma and brain, LC-MS). In kind it is in vivo. As to conditions: C57 mice, intravenous 5 mg/kg. The method, then:
C57 mice were administered intravenously, at a dosage concentration of 5 mg/kg in each group. Retro-orbital blood collection was performed on the mice at 1 min, 30 min, 1 h, and 2 h post-dosing. The collected blood was centrifuged at 3000 rpm for 10 min at 4 °C to obtain plasma. Acetonitrile was added at a 1:3 volume ratio of plasma: acetonitrile to precipitate proteins. After centrifugation, the supernatant was collected and filtered. The concentration of the compound was detected using LC-MS (Agilent 1260-G6125, SIM mode). In addition, 2 h after drug injection, the mice were subjected to cardiac perfusion and then their brains were harvested. Following tissue homogenization and centrifugation, the supernatant was collected. Acetonitrile was added at a 1:3 volume ratio of supernatant: acetonitrile to precipitate proteins. After centrifugation, the supernatant was collected and filtered. The concentration of the compound was detected using LC-MS (Agilent 1260-G6125, SIM mode).
Experimental groups: a vehicle control group, and a dosing group.

T1 sequence (Q8R4B8 whole entry): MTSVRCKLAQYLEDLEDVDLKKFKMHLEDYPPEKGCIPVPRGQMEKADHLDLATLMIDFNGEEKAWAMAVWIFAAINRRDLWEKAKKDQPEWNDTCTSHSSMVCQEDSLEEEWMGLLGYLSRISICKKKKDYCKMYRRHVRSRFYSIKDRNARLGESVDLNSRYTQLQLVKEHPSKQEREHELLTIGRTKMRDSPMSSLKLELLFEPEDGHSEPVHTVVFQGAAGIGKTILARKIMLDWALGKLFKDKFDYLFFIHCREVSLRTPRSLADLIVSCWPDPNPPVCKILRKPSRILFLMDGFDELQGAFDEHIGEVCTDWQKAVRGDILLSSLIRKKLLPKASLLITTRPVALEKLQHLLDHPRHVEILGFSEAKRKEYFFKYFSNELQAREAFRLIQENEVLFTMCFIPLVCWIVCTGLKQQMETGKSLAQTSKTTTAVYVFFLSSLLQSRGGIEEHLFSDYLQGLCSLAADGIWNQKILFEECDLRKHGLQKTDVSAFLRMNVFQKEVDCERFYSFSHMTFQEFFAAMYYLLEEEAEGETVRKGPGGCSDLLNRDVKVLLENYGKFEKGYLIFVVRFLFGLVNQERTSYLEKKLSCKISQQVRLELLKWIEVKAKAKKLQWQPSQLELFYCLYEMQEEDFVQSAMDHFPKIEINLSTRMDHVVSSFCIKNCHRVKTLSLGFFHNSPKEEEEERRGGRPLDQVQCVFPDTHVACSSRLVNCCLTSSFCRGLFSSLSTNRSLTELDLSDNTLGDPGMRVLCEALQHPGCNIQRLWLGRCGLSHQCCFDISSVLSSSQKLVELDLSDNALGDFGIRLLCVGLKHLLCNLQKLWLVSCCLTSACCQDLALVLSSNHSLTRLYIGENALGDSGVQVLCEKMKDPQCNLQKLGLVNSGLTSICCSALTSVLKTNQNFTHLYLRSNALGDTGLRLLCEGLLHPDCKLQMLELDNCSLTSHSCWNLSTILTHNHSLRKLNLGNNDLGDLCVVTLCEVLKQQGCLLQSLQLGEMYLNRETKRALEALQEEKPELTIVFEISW

Turning to `CCOc1ccc(S(=O)(=O)NC(=O)Nc2c3c(cc4c2CCC4)CCC3)cc1CN(C)C` [Example 14, 3-((dimethylamino)methyl)-4-ethoxy-N-((1,2,3,5,6,7-hexahydro-s-indacen-4-yl)carbamoyl)benzenesulfonamide], the inhibition (as a rule, the change of the read-out against control, counted positive when it falls) at 1 µM on NLRP3 [1] was above 80%. On NLRP3 [2], the inhibition at 10 µM was at least 70%.
`CN(C)Cc1ccc(F)c(S(=O)(=O)NC(=O)Nc2c3c(cc4c2CCC4)CCC3)c1F` [Example 25, 3-((dimethylamino)methyl)-2,6-difluoro-N-((1,2,3,5,6,7-hexahydro-s-indacen-4-yl)carbamoyl)benzenesulfonamide]: the inhibition at 1 µM on NLRP3 [1] is above 80%. Further, the inhibition at 10 µM against NLRP3 [2] is at least 70%.
Taken in the same sequence, the figures for `CN(C)Cc1cccc(S(=O)(=O)NC(=O)Nc2c3c(cc4c2CCC4)CCC3)c1F` [Example 24, 3-((dimethylamino)methyl)-2-fluoro-N-((1,2,3,5,6,7-hexahydro-s-indacen-4-yl)carbamoyl)benzenesulfonamide] were above 80% and at least 70%.
On to `COc1cc(F)c(S(=O)(=O)NC(=O)Nc2c3c(cc4c2CCC4)CCC3)cc1CN(C)C` [Example 20, 5-((dimethylamino)methyl)-2-fluoro-N-((1,2,3,5,6,7-hexahydro-s-indacen-4-yl)carbamoyl)-4-methoxybenzenesulfonamide], for which the inhibition at 1 µM on NLRP3 [1] was above 80%. The inhibition at 10 µM on NLRP3 [2] is at least 70%.
Taken in the same sequence, the figures for `CN(C)Cc1cccc(S(=O)(=O)NC(=O)Nc2c3c(cc4c2CCC4)CCC3)c1[N+](=O)[O-]` [Example 18, 3-((dimethylamino)methyl)-N-((1,2,3,5,6,7-hexahydro-s-indacen-4-yl)carbamoyl)-2-nitrobenzenesulfonamide] were above 80% and at least 70%.
Regarding `CN1CCc2ccc(S(=O)(=O)NC(=O)Nc3c4c(cc5c3CCC5)CCC4)cc2C1` [Example 29, N-((1,2,3,5,6,7-hexahydro-s-indacen-4-yl)carbamoyl)-2-methyl-1,2,3,4-tetrahydroisoquinoline-7-sulfonamide], the concentration at 120 min in data set [3] (brain after cardiac perfusion, read-out: brain drug concentration at 120 min) was determined as 197 ng/mL. For the same compound, the half-life (in general, the time needed for the level to fall by half in the phase considered) in data set [3] (plasma) stood at 1.65 h. For the same compound, in data set [3] (plasma, read-out: area under the curve (AUC) from 1 to 120 min), the AUC (in general, concentration integrated over time) came out at 14900 ng·h/mL.
As to `CN(C)Cc1c(F)ccc(S(=O)(=O)NC(=O)Nc2c3c(cc4c2CCC4)CCC3)c1F` [Example 23, 3-((dimethylamino)methyl)-2,4-difluoro-N-((1,2,3,5,6,7-hexahydro-s-indacen-4-yl)carbamoyl)benzenesulfonamide], the inhibition at 1 µM on NLRP3 [1] was above 80%. The same compound came in with an inhibition at 10 µM on NLRP3 [2] of at least 70%.
